The source of these data is patent US20130012432A1, “Peptides for Treatment of Obesity” (Novo Nordisk A/S, priority 2010, published 2013).

≈ marks a conversion by molar mass, not a printed value. Positions of bridges follow the written chain, without caps; N, C: chain ends. Non-standard residues stand in square brackets, D forms with d. Residues, ends and D or L forms follow the SMILES beside them. Groups on a side chain read outwards from the residue. *: point of attachment. Palmitoyl(16-(5-tetrazolyl)) = O=C(CCCCCCCCCCCCCCCc1nnn[nH]1)*; Lys(CH2CO2H)2 = N[C@@H](CCCCN(CC(=O)O)CC(=O)O)C(=O)O; C17 diacid = O=C(O)CCCCCCCCCCCCCCCC(=O)*; Hyp = O=C(O)[C@@H]1C[C@@H](O)CN1; Orn = NCCC[C@H](N)C(=O)O; Dap = NC[C@H](N)C(=O)O; AEEA = NCCOCCOCC(=O)O

Usually solubility stands for how much of the substance goes into solution per volume. High values mean much dissolved substance, low ones little dissolved substance. Usually Ki stands for a measure of affinity in units of concentration, obtained from inhibition or displacement. Read a low Ki as higher affinity.

One data set is described as follows: physchem. The procedure:
From a stock solution in vehicle, either H2O or 10 mM phosphate, containing 1 mg (as weighed) compound per ml, 8-11 aliquots are withdrawn and pH-adjusted individually with HCl/NaOH, to cover the whole pH range.

For another data set, the target named is human MC4 receptor (Homo sapiens, UniProt P32245). The data set is described as follows: biochemical. The protocol: Assay (V)—Melanocortin Receptor 4 (MC4) Binding Assay
In Vitro ^125NDP-α-MSH Binding to Recombinant BHK Cells Expressing Human MC4 Receptor (Filtration Assay).
The assay was performed in 5 ml minisorb vials (Sarstedt No. 55.526) or in 96-well filter-plates (Millipore MADVN 6550), and using BHK cells expressing the human MC4 receptor using BHK cells stably expressing the human MC4 receptor. The membranes were prepared from frozen or fresh cells that were homogenized in 20 mM HEPES pH 7.1, 5 mM MgCl2 and 1 mg/ml bacitracin and centrifuged at 15000 rpm at 4° C., 10 min in a Sorvall RC 5B plus, SS-34 rotor. The supernatant was discarded, and the pellets were re-suspended in buffer, homogenized and centrifuged two more times. The final pellets were resuspended in the buffer mentioned above, and the protein concentration was measured and adjusted with buffer to 14 to 17 mg/ml and the membrane preparation were kept at −80° C. until assay. The assay was run directly on a dilution of this cell membrane suspension, without any further preparation. The BHK cell membranes are kept at −80° C. until assay, and the assay is run directly on a dilution of this cell membrane suspension, without further preparation. The suspension is diluted to give maximally 10% specific binding, i.e. to approx. 50-100 fold dilution. The assay was performed in a total volume of 200 μl: 50 μl of cell suspension, 50 μl of ^125NDP-α-MSH (≈79 pM in final concentration), 50 μl of test compound and 50 μl binding buffer (pH 7) mixed and incubated for 2 h at 25° C. [binding buffer: 25 mM HEPES, pH 7.0, 1 mM CaCl2, 1 mM MgSO4, 1 mM EGTA, 0.02% Bacitracin, 0.005% Tween™ 20 and 0.1% HSA or, alternatively, 0.1% ovalbumin (Sigma; catalogue No. A-5503)]. Test compounds were dissolved in DMSO and diluted in binding buffer. Radiolabelled ligand and membranes were diluted in binding buffer. The incubation was stopped by dilution with 2×100 μl ice-cold 0.9% NaCl. The radioactivity retained on the filters was counted using a Cobra II auto gamma counter.
The data were analysed by non-linear regression analysis of binding curves, using the Windows™ program GraphPad™ Prism (GraphPad Software, USA).

A further data set addresses MC1 receptor (Homo sapiens, UniProt Q01726). The data set is described as follows: biochemical. The procedure, abridged:
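Radioligand competition on membranes (25 μg/ml) of BHK cells stably expressing MC1, with 22 pM final 125I-NDP-α-MSH in 25 mM HEPES pH 7.4, Ca/Mg, EDTA, 0.1% HSA (or ovalbumin), 0.005% Tween 20. Incubated 90 min at 30 °C, filtered over PEI-treated GF/B; curves fitted by non-linear regression.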

The next data set addresses T1, human GLP-1 receptor (Homo sapiens, UniProt P43220).
T1 construct: expressed in transfected cells; purified plasma membranes
Briefly: Assay (XI) GLP-1 activity assay, stimulation of cAMP formation. It counts as biochemical. To be noted: membranes of BHK467-12A cells expressing human GLP-1 receptor. From the text: The capture of cAMP is achieved by using a specific antibody conjugated to acceptor beads.

Chain of MC1 receptor (Q01726 whole entry): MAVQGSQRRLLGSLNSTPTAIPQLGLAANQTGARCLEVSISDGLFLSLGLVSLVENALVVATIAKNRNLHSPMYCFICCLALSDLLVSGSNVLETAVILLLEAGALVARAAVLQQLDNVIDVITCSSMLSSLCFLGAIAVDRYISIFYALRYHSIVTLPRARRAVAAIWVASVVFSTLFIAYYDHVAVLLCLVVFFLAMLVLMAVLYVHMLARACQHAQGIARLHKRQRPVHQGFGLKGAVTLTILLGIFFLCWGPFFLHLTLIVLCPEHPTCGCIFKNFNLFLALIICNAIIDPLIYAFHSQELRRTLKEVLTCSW
Chain of human MC4 receptor (P32245 whole entry): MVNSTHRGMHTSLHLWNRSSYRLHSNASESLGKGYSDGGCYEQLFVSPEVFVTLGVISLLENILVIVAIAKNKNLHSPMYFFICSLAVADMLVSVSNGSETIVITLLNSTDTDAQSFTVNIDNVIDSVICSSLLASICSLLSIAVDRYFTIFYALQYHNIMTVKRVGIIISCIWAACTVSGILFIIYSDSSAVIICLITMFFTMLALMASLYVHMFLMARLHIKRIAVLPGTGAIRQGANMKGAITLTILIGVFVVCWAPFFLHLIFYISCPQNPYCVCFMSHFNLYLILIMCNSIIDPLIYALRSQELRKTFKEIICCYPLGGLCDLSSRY
T1 sequence (P43220 24-463): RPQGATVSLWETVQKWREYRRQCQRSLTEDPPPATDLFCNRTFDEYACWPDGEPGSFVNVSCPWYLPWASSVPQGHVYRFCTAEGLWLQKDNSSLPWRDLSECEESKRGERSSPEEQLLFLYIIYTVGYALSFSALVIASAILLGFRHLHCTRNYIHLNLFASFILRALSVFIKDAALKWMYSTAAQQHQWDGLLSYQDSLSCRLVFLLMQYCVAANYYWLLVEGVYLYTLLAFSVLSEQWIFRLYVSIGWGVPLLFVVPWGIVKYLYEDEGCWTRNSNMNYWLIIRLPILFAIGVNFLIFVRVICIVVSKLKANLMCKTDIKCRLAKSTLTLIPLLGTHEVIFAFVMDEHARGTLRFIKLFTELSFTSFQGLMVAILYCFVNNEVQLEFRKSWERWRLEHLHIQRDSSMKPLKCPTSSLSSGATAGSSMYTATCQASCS

Regarding `CC(=O)N[C@H]1CCC(=O)NC[C@@H](C(=O)N2C[C@H](O)C[C@H]2C(=O)N2C[C@H](O)C[C@H]2C(=O)N[C@@H](CCCNC(=N)N)C(=O)N[C@@H](CC(=O)O)C(=O)N[C@@H](CCCCN(CC(=O)O)CC(=O)O)C(=O)N[C@@H](CCCCNC(=O)COCCOCCNC(=O)CCCCCCCCCCCCCCCc2nnn[nH]2)C(N)=O)NC(=O)[C@H](Cc2c[nH]c3ccccc23)NC(=O)[C@H](CCCNC(=N)N)NC(=O)[C@@H](Cc2ccccc2)NC(=O)[C@H](Cc2c[nH]cn2)NC1=O` [Example 31, Ac-c[Glu-His-D-Phe-Arg-Trp-Dap]-Hyp-Hyp-Arg-Asp-Lys(biscarboxymethyl)-Lys[(2-{2-[16-(tetrazol-5-yl)hexadecanoylamino]ethoxy}ethoxy)acetyl]-NH2] (Ac-EH[dF]RW[Dap][Hyp][Hyp]RD[Lys(CH2CO2H)2]K([AEEA-Palmitoyl(16-(5-tetrazolyl))])-NH2; lactam 1-6), the solubility amounted to 36 µM (≈ 79.4 µg/mL) in the data set “physchem” (pH 6.6, Solubility Conc.); 61 µM (≈ 134 µg/mL) in “physchem” (pH 6.9, Solubility Conc.); 96 µM (≈ 212 µg/mL) in the data set “physchem” (pH 7.3, Solubility Conc.); 228 µM (≈ 503 µg/mL) in the data set “physchem” (pH 7.4, Solubility Conc.); 440 µM (≈ 970 µg/mL) in “physchem” (pH 7.5, Solubility Conc.); 495 µM (≈ 1090 µg/mL) in “physchem” (pH 7.7, Solubility Conc.). The solubility is 529 µM (≈ 1170 µg/mL) in “physchem” (pH 7.9, Solubility Conc.) and 472 µM (≈ 1040 µg/mL) in the data set “physchem” (pH 8.1, Solubility Conc.). Also, the figures for the Ki on human MC4 receptor and at MC1 receptor were 17 nM and above 10000 nM, respectively.
For `CC(=O)N[C@H]1CCCNC(=O)CC[C@@H](C(=O)N2CCC[C@H]2C(=O)N[C@@H](CO)C(=O)N[C@@H](CO)C(=O)N[C@@H](CO)C(=O)N[C@@H](CCC(=O)O)C(=O)N[C@@H](CCC(=O)O)C(=O)N[C@@H](CO)C(=O)N[C@@H](CO)C(=O)N[C@@H](CCCCNC(=O)COCCOCCNC(=O)CCCCCCCCCCCCCCCC(=O)O)C(N)=O)NC(=O)[C@H](Cc2c[nH]c3ccccc23)NC(=O)[C@H](CCCNC(=N)N)NC(=O)[C@@H](Cc2ccccc2)NC(=O)[C@H](Cc2c[nH]cn2)NC1=O` [Example 39] (Ac-[Orn]H[dF]RWEPSSSEESSK([AEEA-C17 diacid])-NH2; lactam 1-6), the solubility in the data set “physchem” (pH 6.1, Solubility Conc.) is 272 µM (≈ 614 µg/mL); in “physchem” (pH 6.6, Solubility Conc.), 403 µM (≈ 910 µg/mL); in the data set “physchem” (pH 6.9, Solubility Conc.), 397 µM (≈ 896 µg/mL); in the data set “physchem” (pH 7.1, Solubility Conc.) it was 419 µM (≈ 946 µg/mL); in “physchem” (pH 7.4, Solubility Conc.) it was 448 µM (≈ 1010 µg/mL); in the data set “physchem” (pH 7.7, Solubility Conc.), 426 µM (≈ 962 µg/mL). Besides, the solubility in the data set “physchem” (pH 8, Solubility Conc.) worked out at 397 µM (≈ 896 µg/mL); in the data set “physchem” (pH 8.3, Solubility Conc.), 445 µM (≈ 1000 µg/mL). Moreover, the figures for the Ki on human MC4 receptor and at MC1 receptor were 25 nM and above 10000 nM, respectively.
Consider `CC(=O)N[C@H]1CCCCNC(=O)C[C@@H](C(=O)N2CCC[C@H]2C(=O)N2CCC[C@H]2C(=O)N[C@@H](Cc2c[nH]cn2)C(=O)N[C@@H](CCC(=O)O)C(=O)N[C@@H](CCCCN(CC(=O)O)CC(=O)O)C(=O)N[C@@H](CCCCNC(=O)COCCOCCNC(=O)CCCCCCCCCCCCCCCC(=O)O)C(N)=O)NC(=O)[C@H](Cc2c[nH]c3ccccc23)NC(=O)[C@H](CCCNC(=N)N)NC(=O)[C@@H](Cc2ccccc2)NC(=O)[C@H](Cc2c[nH]cn2)NC1=O` [Example 44, Ac-c[Lys-His-D-Phe-Arg-Trp-Asp]-Pro-Pro-His-Glu-Lys(biscarboxymethyl)-Lys({2-[2-(16-carboxyhexadecanoylamino)ethoxy]ethoxy}acetyl)-NH2] (Ac-KH[dF]RWDPPHE[Lys(CH2CO2H)2]K([AEEA-C17 diacid])-NH2; lactam 1-6), for which the solubility in the data set “physchem” (pH 6.5, Solubility Conc.) was found to be 227 µM (≈ 493 µg/mL); in the data set “physchem” (pH 6.7, Solubility Conc.), 364 µM (≈ 790 µg/mL); in the data set “physchem” (pH 6.8, Solubility Conc.), 407 µM (≈ 884 µg/mL); in the data set “physchem” (pH 7, Solubility Conc.), 430 µM (≈ 934 µg/mL); in “physchem” (pH 7.3, Solubility Conc.), 412 µM (≈ 895 µg/mL); in the data set “physchem” (pH 7.6, Solubility Conc.), 407 µM (≈ 884 µg/mL). For the same molecule, the solubility in “physchem” (pH 7.8, Solubility Conc.) turned out to be 429 µM (≈ 932 µg/mL); in the data set “physchem” (pH 8, Solubility Conc.), 408 µM (≈ 886 µg/mL); in the data set “physchem” (pH 8.2, Solubility Conc.), 430 µM (≈ 934 µg/mL). Also, the Ki on human MC4 receptor was 17 nM; at MC1 receptor, above 10000 nM.
For the molecule `CC(=O)N[C@H]1CCCCNC(=O)C[C@@H](C(=O)N2CCC[C@H]2C(=O)N[C@@H](CO)C(=O)N[C@@H](Cc2c[nH]cn2)C(=O)N[C@@H](CCC(=O)O)C(=O)N[C@@H](CCCCN(CC(=O)O)CC(=O)O)C(=O)N[C@@H](CCCCNC(=O)COCCOCCNC(=O)CCCCCCCCCCCCCCCC(=O)O)C(N)=O)NC(=O)[C@H](Cc2c[nH]c3ccccc23)NC(=O)[C@H](CCCNC(=N)N)NC(=O)[C@@H](Cc2ccccc2)NC(=O)[C@H](Cc2c[nH]cn2)NC1=O` [Example 49, Ac-c[Lys-His-D-Phe-Arg-Trp-Asp]-Pro-Ser-His-Glu-Lys(biscarboxymethyl)-Lys({2-[2-(16-carboxyhexadecanoylamino)ethoxy]ethoxy}acetyl)-NH2] (Ac-KH[dF]RWDPSHE[Lys(CH2CO2H)2]K([AEEA-C17 diacid])-NH2; lactam 1-6), the solubility in “physchem” (pH 6.5, Solubility Conc.) turned out to be 248 µM (≈ 536 µg/mL); in “physchem” (pH 6.6, Solubility Conc.) it was 423 µM (≈ 914 µg/mL); in “physchem” (pH 6.8, Solubility Conc.), 427 µM (≈ 923 µg/mL); in the data set “physchem” (pH 7, Solubility Conc.), 462 µM (≈ 999 µg/mL); in the data set “physchem” (pH 7.3, Solubility Conc.), 460 µM (≈ 994 µg/mL); in “physchem” (pH 7.7, Solubility Conc.), 439 µM (≈ 949 µg/mL). Further, the solubility is 456 µM (≈ 986 µg/mL) in the data set “physchem” (pH 7.8, Solubility Conc.); 410 µM (≈ 886 µg/mL) in “physchem” (pH 8, Solubility Conc.); 446 µM (≈ 964 µg/mL) in the data set “physchem” (pH 8.2, Solubility Conc.). Also, the Ki on human MC4 receptor is 25 nM; on MC1 receptor, above 10000 nM.
On to exendin-4(7-45) [SEQ ID NO: 4], for which, on human GLP-1 receptor, the “EC50 relative to that of compound G1” value is given as “about 0.3 times”.
